O=Cc1ccc([N+](=O)[O-])cc1
solubility (mole fraction)
Settings	273.15 K	278.15 K	283.15 K	288.15 K	293.15 K	298.15 K	303.15 K	308.15 K	313.15 K
in 2-butanone	0.0367	0.0459	0.0567	0.0689	0.0836	0.102	0.122	0.147	0.174
in DMF	0.104	0.119	0.135	0.152	0.17	0.192	0.213	0.237	0.262
in acetone	0.0389	0.051	0.0662	0.0851	0.107	0.134	0.166	0.202	0.244
in acetonitrile	0.0262	0.0351	0.0471	0.0614	0.0801	0.102	0.13	0.161	0.199
in ethanol	0.0151	0.0177	0.0199	0.0232	0.0265	0.031	0.0366	0.0422	0.0498
in ethyl acetate	0.0321	0.0401	0.0488	0.0591	0.072	0.087	0.106	0.126	0.151
in isopropanol	0.00326	0.00399	0.00451	0.005	0.00589	0.00703	0.00843	0.00929	0.0111
in methanol	0.0263	0.0323	0.0398	0.0488	0.0596	0.0731	0.0884	0.108	0.13
in n-butanol	0.0118	0.0128	0.0144	0.0161	0.018	0.02	0.0225	–	0.0283
in n-propanol	0.014	0.0152	0.0168	0.019	0.0216	0.0243	0.0272	0.0312	0.0362
in toluene	0.0191	0.0239	0.0297	0.0366	0.0449	0.0547	0.0657	0.0802	0.0969
